Measured values taken from the supplement of paper PMC11061612.

Assays:
Experiment in all cases: combination Emax (second highest fraction inhibited in the dose matrix, 72 h); higher = more inhibition; extreme values may be limits of the assay
[1] = test system: DB (B-Cell Non-Hodgkin's Lymphoma)
Method in brief: (§1)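 After 24 hours at 37°C and 5% CO2 in 1536-well plates, cells in DMEM/F12 or RPMI plus 10% FBS received two-drug dose matrices for 72 hours. Viability came from CellTiter-Glo 2.0 luminescence and was scaled as inhibition, anchored at 0 by vehicle wells and at 1 by blank wells. Combination Emax is taken as the second-highest inhibition in the matrix, and Bliss excess as the observed combination effect less EA + EB − EA·EB, with EA and EB the single-agent effects.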

[2] = test system: DOV13 (Ovarian Carcinoma)
Method in brief: as §1

DSH1 (Bladder Carcinoma) = test system: DSH1 (Bladder Carcinoma)
Method in brief: as §1

ES7 (Ewing's Sarcoma) = test system: ES7 (Ewing's Sarcoma)
Method in brief: as §1

[3] = test system: HT-29 (Colorectal Carcinoma)
Method in brief: as §1

[4] = test system: IHH-4 (Thyroid Gland Carcinoma)
Method in brief: as §1

[5] = test system: KARPAS-620 (Plasma Cell Myeloma)
Method in brief: as §1

[6] = test system: KATOIII (Gastric Carcinoma)
Method in brief: as §1

[7] = test system: LS-513 (Colorectal Carcinoma)
Method in brief: as §1

[8] = test system: MDA-MB-157 (Breast Carcinoma)
Method in brief: as §1

[9] = test system: MDA-MB-231 (Breast Carcinoma)
Method in brief: as §1

[10] = test system: MFH-ino (Other Solid Carcinomas)
Method in brief: as §1

[11] = test system: NALM-6 (B-Lymphoblastic Leukemia)
Method in brief: as §1

NCI-H2595 (Mesothelioma) = test system: NCI-H2595 (Mesothelioma)
Method in brief: as §1

[12] = test system: OCI-AML2 (Acute Myeloid Leukemia)
Method in brief: as §1

SK-N-FI (Neuroblastoma) = test system: SK-N-FI (Neuroblastoma)
Method in brief: as §1

SN12C (Kidney Carcinoma) = test system: SN12C (Kidney Carcinoma)
Method in brief: as §1

[13] = test system: SW1088 (Low Grade Glioma)
Method in brief: as §1

[14] = test system: SW1990 (Pancreatic Carcinoma)
Method in brief: as §1

[15] = test system: TE-5 (Esophageal Squamous Cell Carcinoma)
Method in brief: as §1

| SMILES | combination Emax [1] | combination Emax [2] | combination Emax (DSH1 (Bladder Carcinoma)) | combination Emax (ES7 (Ewing's Sarcoma)) | combination Emax [3] | combination Emax [4] | combination Emax [5] | combination Emax [6] | combination Emax [7] | combination Emax [8] | combination Emax [9] | combination Emax [10] | combination Emax [11] | combination Emax (NCI-H2595 (Mesothelioma)) | combination Emax [12] | combination Emax (SK-N-FI (Neuroblastoma)) | combination Emax (SN12C (Kidney Carcinoma)) | combination Emax [13] | combination Emax [14] | combination Emax [15] |
| --- | --- | --- | --- | --- | --- | --- | --- | --- | --- | --- | --- | --- | --- | --- | --- | --- | --- | --- | --- | --- |
| N#Cc1cnc(Nc2cc(NC[C@H]3CNCCO3)c(C(F)(F)F)cn2)cn1 [SRA737] + Nc1ccn([C@@H]2O[C@H](CO)[C@@H](O)C2(F)F)c(=O)n1 [Gemcitabine] (first compound max 10 µM, 7x7, partner max 0.3 µM) | 0.931 | 0.97 | 0.972 | 0.989 | 0.853 | 1 | 0.801 | 0.557 | 0.801 | 0.905 | 0.838 | 0.738 | 0.954 | 0.397 | 1 | 0.752 | 0.664 | 0.626 | 0.505 | 0.633 |
| C[C@@H]1COCCN1c1cc(C2([S@](C)(=N)=O)CC2)nc(-c2ccnc3[nH]ccc23)n1 [AZD6738] + C1CC(C1)(C(=O)[O-])C(=O)[O-].N.N.[Pt+2] [Carboplatin] (first compound max 10 µM, 7x7, partner max 10 µM) | 0.435 | 0.818 | 0.725 | 0.777 | 0.766 | 0.773 | 0.399 | 0.424 | 0.727 | 0.889 | 0.576 | 0.468 | 0.924 | 0.275 | 0.951 | 0.601 | 0.222 | 0.602 | 0.422 | 0.541 |
| O=C(c1cc(Cc2n[nH]c(=O)c3ccccc23)ccc1F)N1CCN(C(=O)C2CC2)CC1 [Olaparib] + Cc1c2c(nn1C)CSCc1cc(n(C)n1)CSc1cc(c3ccccc3c1)OCCCc1c(C(=O)O)n(C)c3c-2c(Cl)ccc13 [AZD5991] (first compound max 10 µM, 7x7, partner max 1 µM) | 0.994 | 0.216 | 0.692 | 0.942 | 0.0739 | 0.174 | 1 | 0.356 | 0.204 | 0.655 | 0.161 | 0.0277 | 0.74 | 0.217 | 0.953 | 0.211 | 0.065 | 0.136 | 0.238 | 0.0405 |
| Cc1cc2ncnn2cc1Nc1ncc2c(n1)n(C1CCOCC1)c(=O)n2C [AZD7648] + COc1cc([C@@H]2c3cc4c(cc3[C@@H](O[C@@H]3O[C@@H]5CO[C@@H](C)O[C@H]5[C@H](O)[C@H]3O)[C@H]3COC(=O)[C@H]23)OCO4)cc(OC)c1O [Etoposide] (first compound max 10 µM, 7x7, partner max 10 µM) | 0.907 | 0.923 | 0.844 | 0.977 | 0.711 | 0.956 | 0.786 | 0.368 | 0.662 | 0.855 | 0.842 | 0.665 | 1 | 0.446 | 1 | 0.368 | 0.641 | 0.574 | 0.337 | 0.668 |
| CN(CCO)CC[C@H](CSc1ccccc1)Nc1ccc(S(=O)(=O)NC(=O)c2ccc(N3CCC([C@@H](O)c4ccccc4-c4ccc(Cl)cc4)CC3)cc2)cc1S(=O)(=O)C(F)(F)F [AZD4320] + Nc1ccn([C@@H]2O[C@H](CO)[C@@H](O)C2(F)F)c(=O)n1 [Gemcitabine] (first compound max 1 µM, 7x7, partner max 0.3 µM) | 1 | 1 | 0.965 | 0.997 | 0.733 | 1 | 1 | 0.473 | 0.855 | 0.674 | 0.662 | 0.873 | 1 | 0.382 | 1 | 0.378 | 0.52 | 0.151 | 0.627 | 0.875 |
| O=C(c1cc(Cc2n[nH]c(=O)c3ccccc23)ccc1F)N1CCN(C(=O)C2CC2)CC1 [Olaparib] + COc1nnc2ccc(N3CCC(c4ccc(OCCN5CCN(C)C(=O)[C@H]5C)cc4)CC3)nn12 [AZD5153] (first compound max 10 µM, 7x7, partner max 1 µM) | 0.74 | 0.455 | 0.647 | 0.944 | 0.658 | 0.535 | 0.666 | 0.4 | 0.591 | 0.438 | 0.626 | 0.346 | 0.911 | 0.273 | 0.983 | 0.489 | 0.255 | 0.392 | 0.195 | 0.347 |
